Reference: US5075289A, “9-R-azacyclic erythromycin antibiotics” (priority 1988, dated 1991)
Converted amounts (≈) assume the structure as drawn. Where two headings read alike, the source gives them in different places.

Columns and labels:
Experiment in all cases: In vitro antibacterial activity, agar dilution MIC
Format in all cases: cell-based
[1] = test system: Streptococcus pyogenes 2548 INDUC; conditions: S. pyogenes 2548 INDUC, Brain Heart Infusion agar, 20-24 hours, read-out: MIC
Summary of the method: (§1)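 Test compound serially diluted in Brain Heart Infusion agar across twelve plates; inocula of 1:100 dilutions (1:10 for slow growers such as Streptococcus) applied by replicator. Plates incubated 20-24 h at 35°-37° C. MIC taken as lowest concentration giving no growth, slight haze or sparse isolated colonies versus drug-free control.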

[2] = test system: Streptococcus bovis A5169
Summary of the method: as §1

[3] = test system: Staphylococcus aureus 45
Summary of the method: as §1

[4] = test system: Escherichia coli DC-2; conditions: DC2
Summary of the method: as §1

[5] = test system: Staphylococcus aureus ATCC 6538P; conditions: ATCC6538P
Summary of the method: as §1

[6] = test system: Haemophilus influenzae 566A; conditions: H. influenzae 566A
Summary of the method: as §1

[7] = test system: Haemophilus influenzae 1435; conditions: H. influenzae 1435
Summary of the method: as §1

[8] = test system: Haemophilus influenzae ATCC 10211; conditions: ATCC10211, H. influenzae ATCC 10211
Summary of the method: as §1

[9] = test system: Haemophilus influenzae ATCC 9795; conditions: ATCC9795, H. influenzae ATCC 9795
Summary of the method: as §1

[10] = test system: Escherichia coli SS; conditions: read-out: MIC
Summary of the method: as §1

[11] = test system: Streptococcus pyogenes EES61; conditions: S. pyogenes EES61, Brain Heart Infusion agar, 20-24 hours, read-out: MIC
Summary of the method: as §1

[12] = test system: Haemophilus influenzae SOL AMP R; conditions: H. influenzae SOL AMP R
Summary of the method: as §1

[13] = test system: Haemophilus influenzae 1177; conditions: H. influenzae 1177
Summary of the method: as §1

[14] = test system: Haemophilus influenzae 504; conditions: H. influenzae 504
Summary of the method: as §1

[15] = test system: Staphylococcus aureus CMX 686B; conditions: CMX686B, S. aureus CMX 686B, Brain Heart Infusion agar, 20-24 hours, read-out: MIC
Summary of the method: as §1

[16] = test system: Haemophilus influenzae 747C; conditions: H. influenzae 747C
Summary of the method: as §1

[17] = test system: Streptococcus agalactiae CMX 508; conditions: CMX508, S. agalactiae CMX 508, Brain Heart Infusion agar, 20-24 hours, read-out: MIC
Summary of the method: as §1

[18] = test system: Staphylococcus aureus A5177; conditions: S. aureus A5177, Brain Heart Infusion agar, 20-24 hours, read-out: MIC
Summary of the method: as §1

[19] = test system: Haemophilus influenzae 503B; conditions: H. influenzae 503B
Summary of the method: as §1

[20] = test system: Haemophilus influenzae ATCC 19418; conditions: ATCC19418, H. influenzae ATCC 19418
Summary of the method: as §1

[21] = test system: Haemophilus influenzae 588A; conditions: H. influenzae 588A
Summary of the method: as §1

[22] = test system: Haemophilus influenzae 632A; conditions: H. influenzae 632A
Summary of the method: as §1

[23] = test system: Staphylococcus aureus CMX 553; conditions: CMX553, S. aureus CMX 553, Brain Heart Infusion agar, 20-24 hours, read-out: MIC
Summary of the method: as §1

[24] = test system: Haemophilus influenzae DILL AMP R; conditions: H. influenzae DILL AMP R
Summary of the method: as §1

[25] = test system: Escherichia coli H560; conditions: H560
Summary of the method: as §1

[26] = test system: Haemophilus influenzae 519A; conditions: H. influenzae 519A
Summary of the method: as §1

[27] = test system: Haemophilus influenzae 667A; conditions: H. influenzae 667A
Summary of the method: as §1

[28] = test system: Escherichia coli Juhl
Summary of the method: as §1

[29] = test system: Staphylococcus epidermidis 3519; conditions: S. epidermidis 3519, Brain Heart Infusion agar, 20-24 hours, read-out: MIC
Summary of the method: as §1

[30] = test system: Staphylococcus aureus CMX 503A; conditions: CMX503A, S. aureus CMX 503A, Brain Heart Infusion agar, 20-24 hours, read-out: MIC
Summary of the method: as §1

[31] = test system: Micrococcus luteus ATCC 4698
Summary of the method: as §1

[32] = test system: Micrococcus luteus ATCC 9341; conditions: ATCC9341, M. luteus ATCC 9341, Brain Heart Infusion agar, 20-24 hours, read-out: MIC
Summary of the method: as §1

[33] = test system: Enterococcus faecium ATCC 8043
Summary of the method: as §1

[34] = test system: Streptococcus pyogenes 930 CONST; conditions: 930CONST
Summary of the method: as §1

[35] = test system: Haemophilus influenzae SPK AMP R; conditions: H. influenzae SPK AMP R
Summary of the method: as §1

Structure (SMILES): CC[C@H]1OC(=O)[C@H](C)[C@@H](O[C@H]2C[C@@](C)(OC)[C@@H](O)[C@H](C)O2)[C@H](C)[C@@H](O[C@@H]2O[C@H](C)C[C@H](N(C)C)[C@H]2O)[C@](C)(O)C[C@@H](C)[C@@H](N2CCOCC2)[C@H](C)[C@@H](O)[C@]1(C)O [Example 19]
- MIC [1]: 6.2 µg/mL (≈ 7.7 µM)
- MIC [2]: 0.1 µg/mL (≈ 0.124 µM)
- MIC [3]; 45: 0.39 µg/mL (≈ 0.484 µM)
- MIC [4]: 50 µg/mL (≈ 62.1 µM)
- MIC [5]: 0.39 µg/mL (≈ 0.484 µM)
- MIC [6]: 4 µg/mL (≈ 4.97 µM)
- MIC [7]: 1 µg/mL (≈ 1.24 µM)
- MIC [8]: 2 µg/mL (≈ 2.48 µM)
- MIC [9]: 4 µg/mL (≈ 4.97 µM)
- MIC [10]: 0.2 µg/mL (≈ 0.248 µM)
- MIC [11]: 0.05 µg/mL (≈ 0.0621 µM)
- MIC [12]: 2 µg/mL (≈ 2.48 µM)
- MIC [13]: 0.25 µg/mL (≈ 0.311 µM)
- MIC [14]: 4 µg/mL (≈ 4.97 µM)
- MIC [15]: 0.39 µg/mL (≈ 0.484 µM)
- MIC [16]: 2 µg/mL (≈ 2.48 µM)
- MIC [17]: 0.05 µg/mL (≈ 0.0621 µM)
- MIC [18]: 6.2 µg/mL (≈ 7.7 µM)
- MIC [19]: 1 µg/mL (≈ 1.24 µM)
- MIC [20]: 4 µg/mL (≈ 4.97 µM)
- MIC [21]: 2 µg/mL (≈ 2.48 µM)
- MIC [22]: 4 µg/mL (≈ 4.97 µM)
- MIC [23]: 0.39 µg/mL (≈ 0.484 µM)
- MIC [24]: 2 µg/mL (≈ 2.48 µM)
- MIC [25]: 6.2 µg/mL (≈ 7.7 µM)
- MIC [26]: 2 µg/mL (≈ 2.48 µM)
- MIC [27]: 4 µg/mL (≈ 4.97 µM)
- MIC [28]: 50 µg/mL (≈ 62.1 µM)
- MIC [29]: 0.39 µg/mL (≈ 0.484 µM)
- MIC [30]: 0.39 µg/mL (≈ 0.484 µM)
- MIC ([31]; ATCC4698, read-out: MIC): 0.2 µg/mL (≈ 0.248 µM)
- MIC [32]: 0.05 µg/mL (≈ 0.0621 µM)
- MIC ([33]; ATCC8043): 0.1 µg/mL (≈ 0.124 µM)
- MIC [34]: > 100 µg/mL
- MIC [35]: 4 µg/mL (≈ 4.97 µM)

Structure (SMILES): CC[C@H]1OC(=O)[C@H](C)[C@@H](O[C@H]2C[C@@](C)(OC)[C@@H](O)[C@H](C)O2)[C@H](C)[C@@H](O[C@@H]2O[C@H](C)C[C@H](N(C)C)[C@H]2O)[C@](C)(O)C[C@@H](C)[C@@H](N2CCCCC2)[C@H](C)[C@@H](O)[C@]1(C)O [Example 5]
- MIC [1]: 6.2 µg/mL (≈ 7.72 µM)
- MIC ([2]; S. bovis A5169, Brain Heart Infusion agar, 20-24 hours, read-out: MIC): 0.1 µg/mL (≈ 0.125 µM)
- MIC ([3]; S. aureus 45, Brain Heart Infusion agar, 20-24 hours, read-out: MIC): 0.78 µg/mL (≈ 0.971 µM)
- MIC [4]: 50 µg/mL (≈ 62.3 µM)
- MIC ([5]; S. aureus ATCC 6538P, Brain Heart Infusion agar, 35-37° C., 20-24 hours, read-out: MIC): 0.39 µg/mL (≈ 0.486 µM)
- MIC [6]: 2 µg/mL (≈ 2.49 µM)
- MIC [7]: 0.5 µg/mL (≈ 0.623 µM)
- MIC [8]: 1 µg/mL (≈ 1.25 µM)
- MIC [9]: 1 µg/mL (≈ 1.25 µM)
- MIC ([10]; E. coli SS, Brain Heart Infusion agar, 20-24 hours): 0.39 µg/mL (≈ 0.486 µM)
- MIC [11]: 0.05 µg/mL (≈ 0.0623 µM)
- MIC [12]: 1 µg/mL (≈ 1.25 µM)
- MIC [13]: 0.25 µg/mL (≈ 0.311 µM)
- MIC [14]: 1 µg/mL (≈ 1.25 µM)
- MIC [15]: 0.39 µg/mL (≈ 0.486 µM)
- MIC [16]: 1 µg/mL (≈ 1.25 µM)
- MIC [17]: 0.05 µg/mL (≈ 0.0623 µM)
- MIC [18]: 6.2 µg/mL (≈ 7.72 µM)
- MIC [19]: 0.5 µg/mL (≈ 0.623 µM)
- MIC [20]: 2 µg/mL (≈ 2.49 µM)
- MIC [21]: 1 µg/mL (≈ 1.25 µM)
- MIC [22]: 1 µg/mL (≈ 1.25 µM)
- MIC [23]: 0.39 µg/mL (≈ 0.486 µM)
- MIC [24]: 1 µg/mL (≈ 1.25 µM)
- MIC [25]: 25 µg/mL (≈ 31.1 µM)
- MIC [26]: 0.5 µg/mL (≈ 0.623 µM)
- MIC [27]: 1 µg/mL (≈ 1.25 µM)
- MIC [28]: 50 µg/mL (≈ 62.3 µM)
- MIC [29]: 0.39 µg/mL (≈ 0.486 µM)
- MIC [30]: 0.39 µg/mL (≈ 0.486 µM)
- MIC ([31]; ATCC4698, M. luteus ATCC 4698, Brain Heart Infusion agar, 20-24 hours, read-out: MIC): 0.2 µg/mL (≈ 0.249 µM)
- MIC [32]: 0.1 µg/mL (≈ 0.125 µM)
- MIC ([33]; ATCC8043, E. faecium ATCC 8043, Brain Heart Infusion agar, 20-24 hours, read-out: MIC): 0.1 µg/mL (≈ 0.125 µM)
- MIC [34]: > 100 µg/mL
- MIC [35]: 1 µg/mL (≈ 1.25 µM)
